Laboratory results: patent US8436004B2, “Bicycloaniline derivative” (MSD K.K., priority 2007, dated 2013)

Legend:
Wee1 kinase = biological target: T1, Wee1 kinase (Homo sapiens, UniProt P30291); experiment: Wee1 kinase-inhibitory effect (33P-ATP, Poly(Lys,Tyr) substrate, filter assay); assay type: biochemical; conditions: 10 μM ATP, 30° C., 30 minutes
T1 construct: made in house; host or cells: Sf9 insect cells (recombinant baculovirus)
Description: Pharmacological Test 1 (Wee1 Kinase-Inhibitory Effect)
(1) Purification of Wee1 Kinase:
A cDNA of Wee1 kinase with […] (GST) fused at the amino terminal thereof was inserted into a baculovirus expression vector to construct a recombinant baculovirus, with which cells of an insect cell line Sf9 were infected for high expression therein. The infected cells were recovered and solubilized, and then the GST-tagged Wee1 kinase protein was adsorbed by a glutathion column, and eluted from the column with glutathion, and the active fraction was desalted in a desalting column to give a purified enzyme.
(2) Determination of Wee1 Kinase Activity:
In determination of the Wee1 kinase activity, a synthetic peptide, Poly(Lys,Tyr) Hydrobromide (Lys:Tyr (4:1)) bought from Sigma was used as the substrate.
The amount of the reaction liquid was 21.1 μL; and the composition of the reaction buffer was 50 mM Tris-HCl buffer (pH 7.4)/10 mM magnesium chloride/1 mM dithiothreitol. The purified Wee1 kinase, 2.5 μg of the substrate peptide, 10 μM of non-labeled adenosine triphosphate (ATP) and 1 μCi of [γ-^33P]-labeled ATP (2500 Ci/mmol or more) were added to it, and reacted at 30° C. for 30 minutes. Next, 10 μL of 350 mM phosphate buffer was added to the reaction system to stop the reaction. The substrate peptide was adsorbed by a P81 paper filter 96-well plate, then washed a few times with 130 mM phosphate buffer, and its radioactivity was counted with a liquid scintillation counter. The [γ-^33P]-labeled ATP was bought from Amersham Bioscience.
To add the test compound to the reaction system, the compound was diluted with dimethylsulfoxide (DMSO) to prepare a series of dilutions. 1.1 μL of each dilution was added to the reaction system. As a control, 1.1 μL of DMSO was added to the reaction system.

[1] = tested on: Cdc2 (Cdk1) tyrosine 15-phosphorylation in NCI-H1299 cells; experiment: Cdc2 (Cdk1) tyrosine 15-phosphorylation-inhibitory effect in camptothecin-treated NCI-H1299 cells (ELISA); assay type: cell-based; conditions: Homo sapiens; NCI-H1299, camptothecin 200 nM 16 hours, then test compound + nocodazole 8 hours; read-out: Cdc2-Y15 Phosphorylation-Inhibitory Effect (H1299, + camptothecin) (EC50)
Description: Pharmacological Test 2 (Method of Determining Drug Potency with Cells (Cdc2 (Cdk1) Tyrosine 15-Phosphorylation-Inhibitory Effect))
Fetal bovine serum (FBS) was obtained from Morgate; media RPMI1640 and DMEM were from Invitrogen; camptothecin was from Sigma; gemcitabine was from Nippon Eli Lilly; nocodazole and protease inhibitor cocktail were from Sigma; rabbit anti-Cdc2 antibody and mouse anti-Cdc2 antibody were from Santa Cruz Biotechnology; rabbit anti-tyrosine 15-phosphorylated Cdc2 antibody and horseradish peroxidase-labeled anti-mouse IgG antibody were from Cell Signaling Technology; sure blue reserve TMB peroxidase substrate was from Kirkegaard and Perry Laboratories.
Human non-small cell lung cancer cells (NCI-H1299) and human colon cancer cells (WiDr) were obtained from American Type Culture Collection (ATCC).
In the method of using NCI-H1299 cells, the cells were suspended in a medium of 10% FBS-added RPMI1640, and the cell suspension was applied to a 96-well Nunclondelta-processed plastic plate (bought from Nunc), in an amount of 2000 cells/100 μL/well, in which the cells were incubated overnight in 5% CO2-95% air at 37° C. Camptothecin was dissolved in dimethylsulfoxide (DMSO), and diluted with a medium of 10% FBS-added RPMI1640, and then this was applied to the plate on which the cells had been previously sowed, in an amount of 50 μL/well in such a manner that the final concentration of camptothecin could be 200 nM. Then, the cells were incubated for 16 hours at 37° C. in 5% CO2-95% air. The test compound was stepwise diluted with DMSO, then diluted with 4000 nM nocodazole-containing, 10% FBS-added RPMI1640, and applied to the plate on which the camptothecin-treated cells had been sowed, in an amount of 50 μL/well. The cells were incubated for 8 hours at 37° C. in 5% CO2-95% air, then the culture was removed, and a cytolytic buffer was added to the plate in an amount of 100 μL/well, shaken at 4° C. for 2 hours, then frozen at −80° C., and thawed to give a cell solution. Cdc2 and tyrosine 15-phosphorylated Cdc2 in the cell solution were determined through enzyme-linked immunosorbent assay (ELISA), and the ratio of tyrosine 15-phosphorylated Cdc2 to Cdc2 was calculated to obtain the 50% phosphorylation-inhibitory concentration of the test compound to the cells (EC50, nM). The cytolytic buffer used herein is an aqueous solution containing 20 mM Hepes (pH 7.5), 150 mM sodium chloride, 1 mM disodium ethylenediaminetetraacetate, 0.1% polyoxyethylene (10) octylphenyl ether, 1% protease inhibitor cocktail, 1 mM dithiothreitol, 2 mM sodium orthovanadate, 10 mM sodium fluoride and 10 mM glycerol diphosphate. Cdc2 was determined through ELISA as follows: A rabbit anti-Cdc2 antibody solution, which had been diluted 200-fold with 50 mM carbonate-bicarbonate buffer (pH 9.6), was applied to a 96-well maxisorpimmuno plate (bought from Nunc), in an amount of 50 μL/well, and statically kept overnight at 4° C. so as to fix the antibody on the plate. Next, this was washed three times with phosphate-buffered physiological saline (PBS), and 5% bovine serum albumin-containing PBS (5% BSA/PBS) was added thereto in an amount of 300 μL/well, and statically kept at room temperature for 2 hours, and then again washed three times with PBS. A mouse anti-Cdc2 antibody solution that had been diluted 100-fold with 0.05% polyoxyethylene sorbitan monolaurate and 1% BSA-containing Tris-HCl-buffered physiological saline (1% BSA/TBS-T) was added to it in an amount of 50 μL/well, and the cell solution was added thereto in an amount of 5 μL/well and statically kept overnight at 4° C. Next, this was washed three times with 0.05% polyoxyethylene sorbitan monolaurate and 0.1% BSA-containing Tris-HCl-buffered physiological saline (0.1% BSA/TBS-T), and then a horseradish peroxidase-labeled anti-mouse IgG antibody solution that had been diluted 2000-fold with 1% BSA/TBS-T was added thereto in an amount of 70 μL/well, and statically kept at room temperature for 3 hours. […]

T1 sequence (P30291 whole entry): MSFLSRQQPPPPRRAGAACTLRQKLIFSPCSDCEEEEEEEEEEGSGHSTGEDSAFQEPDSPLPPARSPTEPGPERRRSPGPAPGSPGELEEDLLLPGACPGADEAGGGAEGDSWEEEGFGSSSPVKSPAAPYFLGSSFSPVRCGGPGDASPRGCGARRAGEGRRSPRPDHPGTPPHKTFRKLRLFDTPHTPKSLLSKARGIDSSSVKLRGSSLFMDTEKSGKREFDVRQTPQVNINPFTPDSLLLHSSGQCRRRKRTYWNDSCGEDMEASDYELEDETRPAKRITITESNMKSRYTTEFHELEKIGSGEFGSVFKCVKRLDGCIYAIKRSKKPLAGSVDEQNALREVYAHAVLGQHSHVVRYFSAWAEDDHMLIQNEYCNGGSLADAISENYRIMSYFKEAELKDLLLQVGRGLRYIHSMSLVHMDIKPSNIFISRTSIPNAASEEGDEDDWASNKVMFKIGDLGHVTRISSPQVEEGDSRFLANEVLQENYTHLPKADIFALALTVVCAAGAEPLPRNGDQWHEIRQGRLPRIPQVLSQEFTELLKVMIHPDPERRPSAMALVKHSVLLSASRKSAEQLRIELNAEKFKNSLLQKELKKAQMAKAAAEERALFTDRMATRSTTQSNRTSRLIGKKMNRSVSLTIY

Compound	IC50 (Wee1 kinase) [nM]	EC50 [1] [nM]
CN(C)C1Cc2ccc(Nc3ncc4c(=N)n(-c5c(Cl)cccc5Cl)c(=O)n(C)c4n3)cc2C1 (stereo not drawn) [Example 9]	6.6	24
CN(C)C1CC(C)(C)c2ccc(Nc3ncc4c(=N)n(-c5c(Cl)cccc5Cl)c(=O)[nH]c4n3)cc21 (stereo not drawn) [Example 10]	13.1	61
Cc1cccc(Cl)c1-n1c(=O)[nH]c2nc(Nc3ccc4c(c3)CN(C)CC43CC3)ncc2c1=N [Example 14, 3-(2-chloro-6-methylphenyl)-4-imino-7-[(2′-methyl-2′,3′-dihydro-1′H-spiro[cyclopropane-1,4′-isoquinolin]-7′-yl)amino]-3,4-dihydropyrimido[4,5-d]pyrimidin-2(1H)-one]	10.4	77
Cn1c(=O)n(-c2c(Cl)cccc2Cl)c(=N)c2cnc(Nc3ccc4c(c3)CCN(CCO)C4(C)C)nc21 [Example 22, 3-(2,6-dichlorophenyl)-7-{[2-(2-hydroxyethyl)-1,1-dimethyl-1,2,3,4-tetrahydroisoquinolin-6-yl]amino}-4-imino-1-methyl-3,4-dihydropyrimido[4,5-d]pyrimidin-2(1H)-one]	5.2	16
CN(C)C1Cc2ccc(Nc3ncc4c(=N)n(-c5c(Cl)cccc5Cl)c(=O)[nH]c4n3)cc2C1 (stereo not drawn) [Example 39]	6.5	37
CN(C)CC1CCc2cc(Nc3ncc4c(=N)n(-c5c(Cl)cccc5Cl)c(=O)[nH]c4n3)ccc2C1 (stereo not drawn) [Example 53]	6.5	59
CC(=O)N1CCc2cc(Nc3ncc4c(=N)n(-c5c(Cl)cccc5Cl)c(=O)[nH]c4n3)ccc2C1(C)C [Example 79, 7-[(2-acetyl-1,1-dimethyl-1,2,3,4-tetrahydroisoquinolin-6-yl)amino]-3-(2,6-dichlorophenyl)-4-imino-3,4-dihydropyrimido[4,5-d]pyrimidin-2(1H)-one]	6.3	–
CN1Cc2cc(Nc3ncc4c(=O)n(-c5c(Cl)cccc5Cl)c(=O)[nH]c4n3)ccc2C2(CC2)C1 [Example 82, 3-(2,6-dichlorophenyl)-7-[(2′-methyl-2′,3′-dihydro-1′H-spiro[cyclopropane-1,4′-isoquinolin]-7′-yl)amino]pyrimido[4,5-d]pyrimidin-2,4(1H,3H)-dione]	3.3	30

Next, values leading:

IC50 (Wee1 kinase) [nM]	EC50 [1] [nM]	Compound
8.3	28	CN1CCc2cc(Nc3ncc4c(=N)n(-c5c(Cl)cccc5Cl)c(=O)[nH]c4n3)ccc2C1(C)C [Example 4, 3-(2,6-dichlorophenyl)-4-imino-7-[(1,1,2-trimethyl-1,2,3,4-tetrahydroisoquinolin-6-yl)amino]-3,4-dihydropyrimido[4,5-d]pyrimidin-2(1H)-one]
9.6	70	CN1CCc2cc(Nc3ncc4c(=N)n(-c5c(Cl)ccnc5Cl)c(=O)[nH]c4n3)ccc2C1(C)C [Example 5, 3-(2,4-dichloropyridin-3-yl)-4-imino-7-{[1,1,2-trimethyl-1,2,3,4-tetrahydroisoqunolin-6-yl]amino}-3,4-dihydropyrimido[4,5-d]pyrimidin-2(1H)-one]
6.8	50	CN1CCc2ccc(Nc3ncc4c(=N)n(-c5c(F)cccc5Cl)c(=O)[nH]c4n3)cc2C1 [Example 16, 3-(2-chloro-6-fluorophenyl)-4-imino-7-{[2-methyl-1,2,3,4-tetrahydroisoquinolin-7-yl]amino}-3,4-dihydropyrimido[4,5-d]pyrimidin-2(1H)-one]
9.2	47	CN1CCc2ccc(Nc3ncc4c(=N)n(-c5c(F)cc(F)cc5Cl)c(=O)[nH]c4n3)cc2C1 [Example 17, 3-(2-chloro-4,6-difluorophenyl)-4-imino-7-{[2-methyl-1,2,3,4-tetrahydroisoquinolin-7-yl]amino}-3,4-dihydropyrimido[4,5-d]pyrimidin-2(1H)-one]
8.9	35	CN1CCc2ccc(Nc3ncc4c(=N)n(-c5c(Cl)cc(F)cc5Cl)c(=O)[nH]c4n3)cc2C1 [Example 18, 3-(2,6-dichloro-4-fluorophenyl)-4-imino-7-{[2-methyl-1,2,3,4-tetrahydroisoquinolin-7-yl]amino}-3,4-dihydropyrimido[4,5-d]pyrimidin-2(1H)-one]
4.8	11	Cc1cc(Nc2ncc3c(=N)n(-c4c(Cl)cccc4Cl)c(=O)[nH]c3n2)cc2c1CCN(C)C2 [Example 21, 3-(2,6-dichlorophenyl)-7-{[2,5-dimethyl-1,2,3,4-tetrahydroisoquinolin-7-yl]amino}-4-imino-3,4-dihydropyrimido[4,5-d]pyrimidin-2(1H)-one]
7.1	25	CCN1CCc2cc(Nc3ncc4c(=N)n(-c5c(Cl)cccc5Cl)c(=O)[nH]c4n3)ccc2C1 [Example 30, 3-(2,6-dichlorophenyl)-4-imino-7-{[2-ethyl-1,2,3,4-tetrahydroisoquinolin-6-yl]amino}-3,4-dihydropyrimido[4,5-d]pyrimidin-2(1H)-one]
5.1	45	CN(C)C1CCc2ccc(Nc3ncc4c(=N)n(-c5c(Cl)cccc5Cl)c(=O)[nH]c4n3)cc2C1 (stereo not drawn) [Example 43]
8.6	54	CN1CCc2ccc(Nc3ncc4c(=N)n(-c5c(Cl)cccc5Cl)c(=O)[nH]c4n3)cc2CC1 [Example 48, 3-(2,6-dichlorophenyl)-4-imino-7-[(3-methyl-2,3,4,5-tetrahydro-1H-3-benzazepin-7-yl)amino]-3,4-dihydropyrimido[4,5-d]pyrimidin-2(1H)-one]
